Laboratory results: the supplement of paper PMC10307832

How the values were obtained:
Experiment in all cases: relative viability (nuclei count vs DMSO), 5 days (fraction); higher = more cells survive
Carboplatin + Navitoclax = compound: C1CC(C1)(C(=O)O)C(=O)O.[NH2-].[NH2-].[Pt+2] [Carboplatin] + CC1(C)CCC(c2ccc(Cl)cc2)=C(CN2CCN(c3ccc(C(=O)NS(=O)(=O)c4ccc(N[C@H](CCN5CCOCC5)CSc5ccccc5)c(S(=O)(=O)C(F)(F)F)c4)cc3)CC2)C1 [Navitoclax] (partner 0.5 µM)
Summary of the method: (§1)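 Values are medians from duplicate plates. Each reflects relative viability, defined as the nuclei count of treated wells over that of vehicle wells. Lung cancer cell lines in 1536-well plates were pin-tool dosed one day after seeding with one drug alone or with a fixed anchor-drug dose plus five library-drug doses (not always all listed) in √10 steps, then fixed, stained and imaged at 4× after 5 days.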

Carboplatin + Phenformin = compound: C1CC(C1)(C(=O)O)C(=O)O.[NH2-].[NH2-].[Pt+2] [Carboplatin] + N=C(N)NC(=N)NCCc1ccccc1 [Phenformin] (partner 250 µM)
Summary of the method: as §1

GSK126 + Trametinib = compound: CC[C@H](C)N1C=C(C2=C(C=C(C=C21)C3=CN=C(C=C3)N4CCNCC4)C(=O)NCC5=C(C=C(NC5=O)C)C)C [GSK126] + CC(=O)Nc1cccc(-n2c(=O)n(C3CC3)c(=O)c3c(Nc4ccc(I)cc4F)n(C)c(=O)c(C)c32)c1 [Trametinib] (partner 0.02 µM)
Summary of the method: as §1

GSK126 + Luminespib = compound: CC[C@H](C)N1C=C(C2=C(C=C(C=C21)C3=CN=C(C=C3)N4CCNCC4)C(=O)NCC5=C(C=C(NC5=O)C)C)C [GSK126] + CCNC(=O)c1noc(-c2cc(C(C)C)c(O)cc2O)c1-c1ccc(CN2CCOCC2)cc1 [Luminespib] (partner 0.01 µM)
Summary of the method: as §1

| Cell Line | relative viability (Carboplatin + Navitoclax; first compound 0.08 µM) | relative viability (Carboplatin + Navitoclax; first compound 0.253 µM) | relative viability (Carboplatin + Navitoclax; first compound 0.8 µM) | relative viability (Carboplatin + Navitoclax; first compound 2.53 µM) | relative viability (Carboplatin + Navitoclax; first compound 8 µM) | relative viability (Carboplatin + Phenformin; first compound 0.08 µM) | relative viability (Carboplatin + Phenformin; first compound 0.253 µM) | relative viability (Carboplatin + Phenformin; first compound 0.8 µM) | relative viability (Carboplatin + Phenformin; first compound 2.53 µM) | relative viability (Carboplatin + Phenformin; first compound 8 µM) | relative viability (GSK126 + Trametinib; first compound 0.08 µM) | relative viability (GSK126 + Trametinib; first compound 0.253 µM) | relative viability (GSK126 + Trametinib; first compound 0.8 µM) | relative viability (GSK126 + Trametinib; first compound 2.53 µM) | relative viability (GSK126 + Trametinib; first compound 8 µM) | relative viability (GSK126 + Luminespib; first compound 0.08 µM) | relative viability (GSK126 + Luminespib; first compound 0.253 µM) | relative viability (GSK126 + Luminespib; first compound 0.8 µM) | relative viability (GSK126 + Luminespib; first compound 2.53 µM) | relative viability (GSK126 + Luminespib; first compound 8 µM) |
| --- | --- | --- | --- | --- | --- | --- | --- | --- | --- | --- | --- | --- | --- | --- | --- | --- | --- | --- | --- | --- |
| EMC-BAC-2 | 1.24 | 1.11 | 1.16 | 1.12 | 1.02 | 0.559 | 0.581 | 0.52 | 0.521 | 0.461 | 0.849 | 0.832 | 0.92 | 0.676 | 0.859 | 1.19 | 1.17 | 1.17 | 1.11 | 1.24 |
| EKVX | 0.948 | 1.03 | 0.909 | 0.967 | 0.852 | 0.248 | 0.214 |  | 0.227 | 0.22 | 0.377 | 0.446 | 0.354 | 0.362 | 0.268 | 0.842 | 0.878 | 0.856 | 0.836 | 0.896 |
| NCI-H596 | 1 | 0.952 | 0.803 | 0.74 | 0.695 | 0.871 | 0.767 | 0.768 | 0.638 | 0.67 | 0.803 | 0.687 | 0.697 | 0.862 | 0.733 | 1.11 | 0.319 | 0.277 | 0.263 | 0.219 |
| LOU-NH91 | 0.831 | 0.642 | 0.667 | 0.706 | 0.624 | 0.871 | 0.646 | 0.714 | 0.708 | 0.675 | 0.813 | 0.771 | 0.765 | 0.821 | 0.761 | 0.303 | 0.337 | 0.325 | 0.364 | 0.357 |
